The source of these data is patent US12577216B2, “Triazine benzoate compound and application thereof” (SHENYANG SINOCHEM AGROCHEMICALS R&D CO., LTD., priority 2020, dated 2026).

What all share (type): in vivo
The subject of one assay is piemarker. Description: Determination of herbicidal activity, post-emergence stem and leaf spray, piemarker. The conditions noted are these: for control effects on piemarker / pest or weed control at 150 g/ha: 150 g a.i./hm^2, after emergence, visual 0-100%; for Herbicidal activity for Piemarker, control effect %: Table 4 parallel comparison; for pest or weed control at 150 g/ha: post-emergence, read-out: control effects on piemarker. Here is the method:
(§1) Seeds of broadleaf weeds (zinnia and piemarker) or grassy weeds (green bristlegrass and barnyard grass) were respectively sown in a paper cup having a diameter of 7 cm and containing nutrient soil; after sowing, the seeds were covered with 1 cm of soil; the soil was pressed and watered, and then the seeds were cultivated in a greenhouse according to a conventional method; and stems and leaves were sprayed after 2-3 leaf stage of the weeds.
(§2) After the original medicinal acetone was dissolved, the test requires to use 1‰ of Tween 80 to stand in running water to prepare the solution to be tested with a required concentration. According to the design dose of the test, spray treatment was carried out on a track-type crop sprayer (designed and produced by British Engineer Research Ltd.) (spray pressure is 1.95 kg/cm^2, spray volume is 500 L/hm^2 and track speed is 1.48 km/h). The test was repeated for three times. The test material was treated and then placed in an operation hall. The medicinal liquid was naturally dried in the shade, and then was placed in a greenhouse and managed according to the conventional method. The response of the weeds to the drug was observed and recorded. After treatment, the control effects of the test drug on the weeds were visually inspected regularly, expressed by 0-100%. “0” represents no control effect and “100%” represents complete killing.

Another assay has as its system zinnia. Description: Determination of herbicidal activity, post-emergence stem and leaf spray, zinnia. The following applies: for control effects on zinnia: 150 g a.i./hm^2, after emergence, visual 0-100%; for Herbicidal activity for Zinnia, control effect %: Table 3 parallel comparison. As to the method: as §1, §2
Another assay concerns green bristlegrass. Description: Determination of herbicidal activity, post-emergence stem and leaf spray, green bristlegrass. The conditions noted are these: Table 5 parallel comparison. As to the method:
as §1, §2

The mark [1] stands for this setting: 2.34 g a.i./hm^2, after emergence.
[2] abbreviates: 9.375 g a.i./hm^2, after emergence.
Where [3] appears, read: 37.5 g a.i./hm^2, after emergence.

For the molecule `CC(OC(=O)c1cc(-n2c(=O)n(C)c(=S)n(C)c2=O)ccc1Cl)C(=O)OCCCl` (racemic) [Compound 138], the “control effects on piemarker” value in the assay on piemarker was 100%.
As to `CC(OC(=O)c1cc(-n2c(=O)n(C)c(=S)n(C)c2=O)c(F)cc1Cl)C(=O)OCCCl` (racemic) [Compound 265], the “control effects on zinnia” value in the assay on zinnia came out at 100%. Moreover, the “control effects on piemarker” value with piemarker worked out at 100%. Besides, the “Herbicidal activity for Piemarker, control effect %” value in the assay with piemarker (setting [1]) came out at 90%; in the assay on piemarker (setting [2]), 100%.
`CC(OC(=O)c1cc(-n2c(=O)n(C)c(=S)n(C)c2=O)c(F)cc1Cl)C(=O)OCCCCl` (racemic) [Compound 268]: the “control effects on zinnia” value in the assay with zinnia was 100%. Also, the entries for the “Herbicidal activity for Zinnia, control effect %” value in the assay on zinnia (setting [1]) and with zinnia (setting [2]) were 85% and 100%, respectively. The “control effects on piemarker” value with piemarker stood at 100%.
Take `CC(OC(=O)c1cc(-n2c(=O)n(C)c(=S)n(C)c2=O)ccc1Cl)C(=O)OCC1CC1` (stereo not drawn) [Compound 160]: the “control effects on piemarker” value in the assay on piemarker is on record as 100%.
Consider `Cn1c(=S)n(C)c(=O)n(-c2cc(C(=O)OCC(=O)OCCCCl)c(Cl)cc2F)c1=O` [Compound 222, 2-chloro-4-fluoro-5-(3,5-dimethyl-2,6-dioxo-4-thio-1,3,5-triazine-1-yl)benzoic acid (3-chloropropoxycarbonyl) methyl ester], for which, in the assay on zinnia, the “control effects on zinnia” value stood at 100%. Besides, the “Herbicidal activity for Zinnia, control effect %” value in the assay with zinnia (setting [1]) and in the assay with zinnia (setting [2]) was 100% in each case. Moreover, the pest or weed control at 150 g/ha with piemarker was determined as 100%. Besides, the “Herbicidal activity for Green Bristlegrass, control effect %” value is given as 60% with green bristlegrass (setting [2]) and 90% in the assay on green bristlegrass (setting [3]).
Turning to `Cn1c(=S)n(C)c(=O)n(-c2cc(C(=O)OCC(=O)OCC3COC(C)(C)O3)c(Cl)cc2F)c1=O` (stereo not drawn) [Compound 247], the “control effects on zinnia” value in the assay with zinnia was found to be 100%. Also, the “Herbicidal activity for Zinnia, control effect %” value in the assay with zinnia (setting [1]) and in the assay with zinnia (setting [2]) was 100% throughout. Further, in the assay on piemarker, the “control effects on piemarker” value came out at 100%. Moreover, the results for the “Herbicidal activity for Green Bristlegrass, control effect %” value in the assay with green bristlegrass (setting [2]) and in the assay with green bristlegrass (setting [3]) were 60% and 90%, respectively.
`CC(OC(=O)c1cc(-n2c(=O)n(C)c(=S)n(C)c2=O)c(F)cc1Cl)C(=O)OCCF` (stereo not drawn) [Compound 264]: the “control effects on zinnia” value with zinnia amounted to 100%. Further, the “Herbicidal activity for Zinnia, control effect %” value in the assay with zinnia (setting [1]) came out at 90%; in the assay on zinnia (setting [2]), 100%. The “control effects on piemarker” value in the assay on piemarker is 100%.
On to `C[C@@H](OC(=O)c1cc(-n2c(=O)n(C)c(=S)n(C)c2=O)c(F)cc1Cl)C(=O)OCCCl` [Compound 266], for which the “control effects on zinnia” value in the assay on zinnia was 100%. Moreover, the “Herbicidal activity for Zinnia, control effect %” value worked out at 85% in the assay with zinnia (setting [1]) and 100% in the assay with zinnia (setting [2]). Moreover, the pest or weed control at 150 g/ha in the assay on piemarker was determined as 100%.
With `C[C@H](OC(=O)c1cc(-n2c(=O)n(C)c(=S)n(C)c2=O)c(F)cc1Cl)C(=O)OCCCl` [Compound 267], in the assay with zinnia, the “control effects on zinnia” value is recorded as 100%. In addition, the “Herbicidal activity for Zinnia, control effect %” value came out at 85% in the assay on zinnia (setting [1]) and 100% in the assay on zinnia (setting [2]). The “Herbicidal activity for Piemarker, control effect %” value in the assay with piemarker (setting [1]) amounted to 90%; in the assay on piemarker (setting [2]), 100%. Moreover, the pest or weed control at 150 g/ha in the assay with piemarker is 100%.
With `C[C@@H](OC(=O)c1cc(-n2c(=O)n(C)c(=S)n(C)c2=O)c(F)cc1Cl)C(=O)OCCCCl` [Compound 269], the “control effects on zinnia” value in the assay on zinnia is 100%. Moreover, the “Herbicidal activity for Zinnia, control effect %” value in the assay on zinnia (setting [1]) came out at 80%; in the assay on zinnia (setting [2]) it was 95%. Further, the “control effects on piemarker” value in the assay with piemarker is 100%.
`C[C@H](OC(=O)c1cc(-n2c(=O)n(C)c(=S)n(C)c2=O)c(F)cc1Cl)C(=O)OCCCCl` [Compound 270]: in the assay with zinnia, the “control effects on zinnia” value was determined as 100%. Further, the “Herbicidal activity for Zinnia, control effect %” value turned out to be 90% with zinnia (setting [1]) and 100% in the assay on zinnia (setting [2]). Also, the “control effects on piemarker” value in the assay on piemarker came out at 100%. Moreover, the figures for the “Herbicidal activity for Piemarker, control effect %” value in the assay on piemarker (setting [1]) and in the assay on piemarker (setting [2]) were 85% and 100%, respectively.
As to `CC(OC(=O)c1cc(-n2c(=O)n(C)c(=S)n(C)c2=O)c(F)cc1Cl)C(=O)OCCCCCl` (stereo not drawn) [Compound 273], the “control effects on zinnia” value in the assay with zinnia came to 100%. Moreover, in the assay with piemarker, the “control effects on piemarker” value was 100%. Also, the figures for the “Herbicidal activity for Piemarker, control effect %” value in the assay on piemarker (setting [1]) and in the assay on piemarker (setting [2]) were 90% and 100%, respectively.
With `CC(OC(=O)c1cc(-n2c(=O)n(C)c(=S)n(C)c2=O)c(F)cc1Cl)C(=O)OCc1ccccc1` (stereo not drawn) [Compound 289], the “control effects on zinnia” value in the assay on zinnia is on record as 100%. For the same molecule, the “control effects on piemarker” value in the assay on piemarker came to 100%.
Turning to `CC(OC(=O)c1cc(-n2c(=O)n(C)c(=S)n(C)c2=O)c(F)cc1Cl)C(=O)OC/C=C/c1ccccc1` (stereo not drawn) [Compound 290], in the assay with zinnia, the “control effects on zinnia” value is 100%. Also, the “control effects on piemarker” value with piemarker is on record as 100%.
Turning to `CC(OC(=O)c1cc(-n2c(=O)n(C)c(=S)n(C)c2=O)c(F)cc1Cl)C(=O)OCC1CCCC1` (stereo not drawn) [Compound 293], in the assay with zinnia, the “control effects on zinnia” value is on record as 100%. Also, the results for the “Herbicidal activity for Zinnia, control effect %” value in the assay on zinnia (setting [1]) and in the assay on zinnia (setting [2]) were 90% and 100%, respectively. Besides, in the assay on piemarker, the “control effects on piemarker” value amounted to 100%. Also, the “Herbicidal activity for Piemarker, control effect %” value in the assay on piemarker (setting [1]) stood at 85%; with piemarker (setting [2]), 100%.
For `CC(OC(=O)c1cc(-n2c(=O)n(C)c(=S)n(C)c2=O)c(F)cc1Cl)C(=O)OCC1CO1` (stereo not drawn) [Compound 295], the “control effects on zinnia” value in the assay with zinnia worked out at 100%. Also, the “Herbicidal activity for Zinnia, control effect %” value in the assay on zinnia (setting [1]) is reported as 90%; in the assay with zinnia (setting [2]), 100%. In addition, the “control effects on piemarker” value in the assay on piemarker was found to be 100%.
`CC(OC(=O)c1cc(-n2c(=O)n(C)c(=S)n(C)c2=O)c(F)cc1Cl)C(=O)OCC1CCCO1` (stereo not drawn) [Compound 296]: in the assay on zinnia, the “control effects on zinnia” value is on record as 100%. In addition, the “Herbicidal activity for Zinnia, control effect %” value in the assay on zinnia (setting [1]) is recorded as 90%; in the assay with zinnia (setting [2]), 100%. In addition, the “control effects on piemarker” value in the assay with piemarker worked out at 100%.
Take `CC(OC(=O)c1cc(-n2c(=O)n(C)c(=S)n(C)c2=O)c(F)cc1Cl)C(=O)OCC1COC(C)(C)O1` (stereo not drawn) [Compound 297]: the “control effects on zinnia” value in the assay with zinnia turned out to be 100%. The “Herbicidal activity for Zinnia, control effect %” value is given as 95% in the assay on zinnia (setting [1]) and 100% in the assay with zinnia (setting [2]). In the assay on piemarker, the “control effects on piemarker” value was 100%. In addition, the “Herbicidal activity for Piemarker, control effect %” value with piemarker (setting [1]) stood at 85%; in the assay on piemarker (setting [2]), 100%.
For `CCOC(=O)C(CC)OC(=O)c1cc(-n2c(=O)n(C)c(=S)n(C)c2=O)c(F)cc1Cl` (stereo not drawn) [Compound 299], the “control effects on zinnia” value in the assay with zinnia amounted to 100%. The “Herbicidal activity for Piemarker, control effect %” value in the assay with piemarker (setting [1]) was found to be 85%; in the assay on piemarker (setting [2]), 100%.
Regarding `CCC(OC(=O)c1cc(-n2c(=O)n(C)c(=S)n(C)c2=O)c(F)cc1Cl)C(=O)OCCF` (stereo not drawn) [Compound 300, 2-chloro-4-fluoro-5-(3,5-dimethyl-2,6-dioxo-4-thio-1,3,5-triazine-1-yl)benzoic acid (1-(2-fluoroethoxycarbonyl))propyl ester], the “control effects on zinnia” value in the assay with zinnia came to 100%. The pest or weed control at 150 g/ha with piemarker is 100%.
For the molecule `CCC(OC(=O)c1cc(-n2c(=O)n(C)c(=S)n(C)c2=O)c(F)cc1Cl)C(=O)OCCCl` (stereo not drawn) [Compound 301], the “control effects on zinnia” value in the assay on zinnia came out at 100%. In addition, in the assay with piemarker, the “control effects on piemarker” value came out at 100%.
As to `CCC(OC(=O)c1cc(-n2c(=O)n(C)c(=S)n(C)c2=O)c(F)cc1Cl)C(=O)OCCCCl` (stereo not drawn) [Compound 302], in the assay on zinnia, the “control effects on zinnia” value worked out at 100%. Also, the “Herbicidal activity for Zinnia, control effect %” value is on record as 90% with zinnia (setting [1]) and 100% in the assay with zinnia (setting [2]). Besides, in the assay on piemarker, the “control effects on piemarker” value is reported as 100%.
With `CCC(OC(=O)c1cc(-n2c(=O)n(C)c(=S)n(C)c2=O)c(F)cc1Cl)C(=O)OCCCCCl` (stereo not drawn) [Compound 303], the “control effects on zinnia” value in the assay on zinnia was determined as 100%. The “Herbicidal activity for Zinnia, control effect %” value in the assay with zinnia (setting [1]) is given as 85%; in the assay with zinnia (setting [2]), 100%. Moreover, the “control effects on piemarker” value in the assay on piemarker is listed as 100%.
As to `CCC(OC(=O)c1cc(-n2c(=O)n(C)c(=S)n(C)c2=O)c(F)cc1Cl)C(=O)OCC1CC1` (stereo not drawn) [Compound 304], in the assay with zinnia, the “control effects on zinnia” value is 100%. The entries for the “Herbicidal activity for Zinnia, control effect %” value in the assay with zinnia (setting [1]) and in the assay with zinnia (setting [2]) were 80% and 100%, respectively. The “control effects on piemarker” value in the assay with piemarker is listed as 100%.
As for `CCOC(=O)C(OC(=O)c1cc(-n2c(=O)n(C)c(=S)n(C)c2=O)c(F)cc1Cl)C(C)C` (stereo not drawn) [Compound 305], the “control effects on zinnia” value in the assay on zinnia was found to be 100%. For the same molecule, the “control effects on piemarker” value with piemarker is listed as 100%.
With `CCOC(=O)C(C)(C)OC(=O)c1cc(-n2c(=O)n(C)c(=S)n(C)c2=O)c(F)cc1Cl` [Compound 306, 2-chloro-4-fluoro-5-(3,5-dimethyl-2,6-dioxo-4-thio-1,3,5-triazine-1-yl)benzoic acid (1-methyl-1-ethoxycarbonyl)ethyl ester], the pest or weed control at 150 g/ha in the assay with piemarker came out at 100%.
